23 compounds from patent US8937092B2, “Aryl or N-heteroaryl substituted methanesulfonamide derivatives as vanilloid receptor ligands” (Gruenenthal GmbH, priority 2011, dated 2015) can be followed below.

The term Ki denotes a measure of affinity in units of concentration, obtained from inhibition or displacement. One may read the inhibition as how much of the control response was suppressed.

One test addresses vanilloid receptor 1 (VR1/TRPV1 receptor) (Homo sapiens, UniProt Q8NER1). Briefly: Functional FLIPR Ca2+ influx assay on vanilloid receptor 1, capsaicin (Cap) stimulus. It is filed as cell-based. The settings on record: Ki from IC50 by Cheng-Prusoff, read-out: (f) Ki (human being) [nM], Cap. The method, then: Furthermore, preference may be given to compounds according to the invention that cause a 50 percent displacement of capsaicin, which is present at a concentration of 100 nM, in a FLIPR assay with CHO K1 cells which were transfected with the human VR1 gene at a concentration of less than 2,000 nM, preferably less than 1,000 nM, particularly preferably less than 300 nM, most particularly preferably less than 100 nM, even more preferably less than 75 nM, additionally preferably less than 50 nM, most preferably less than 10 nM.
In the process, the Ca^2+ influx is quantified in the FLIPR assay with the aid of a Ca^2+-sensitive dye (type Fluo-4, Molecular Probes Europe BV, Leiden, the Netherlands) in a fluorescent imaging plate reader (FLIPR, Molecular Devices, Sunnyvale, USA), as described hereinafter.
Pharmacological Methods I. Functional Testing Carried Out on the Vanilloid Receptor 1 (VRI/TRPV1 Receptor) […]
The number of cells in the suspension is set to 3×10^5 per mL and 150 μL of this suspension are in each case introduced into a recess in the cell culture plates coated as described hereinbefore. In the incubator the plates are left for two to three days at 37° C., 5% by volume of CO2 and 95% relative humidity. Subsequently, the cells are loaded with 2 μM of Fluo-4 and 0.01% by volume of Pluronic F127 (Molecular Probes Europe BV, Leiden, the Netherlands) in HBSS buffer (Hank's buffered saline solution, Gibco Invitrogen GmbH, Karlsruhe, Germany) for 30 min at 37° C., washed 3 times with HBSS buffer and after further incubation for 15 minutes at room temperature used for Ca^2+ measurement in a FLIPR assay. The Ca^2+-dependent fluorescence is in this case measured before and after the addition of substances (λex=488 nm, λem=540 nm). Quantification is carried out by measuring the highest fluorescence intensity (FC, fluorescence counts) over time.
The FLIPR protocol consists of 2 substance additions. First the compounds to be tested (10 μM) are pipetted onto the cells and the Ca^2+ influx is compared with the control (capsaicin 10 μM). This provides the result in % activation based on the Ca^2+ signal after the addition of 10 μM of capsaicin (CP). After 5 minutes' incubation, 100 nM of capsaicin are applied and the Ca^2+ influx is also determined.
Desensitising agonists and antagonists lead to suppression of the Ca^2+ influx. The % inhibition is calculated compared to the maximum achievable inhibition with 10 μM of capsazepine.
Triple analyses (n=3) are carried out and repeated in at least 3 independent experiments (N=4).
Starting from the percentage displacement caused by different concentrations of the compounds to be tested of general formula I, IC50 inhibitory concentrations which cause a 50-percent displacement of capsaicin were calculated. K, values for the test substances were obtained by conversion by means of the Cheng-Prusoff equation (Cheng, Prusoff; Biochem. Pharmacol. 22, 3099-3108, 1973).
The affinity of the compounds according to the invention for the vanilloid receptor 1 (VR1/TRPV1 receptor) was determined as described herein before (pharmacological method I).
The value after the “@” symbol indicates the concentration at which the inhibition (as a percentage) was respectively determined.
Turning to `COc1c(C)cccc1-c1nc(C(F)(F)F)ccc1CNC(=O)C(C)c1ccc(CNS(C)(=O)=O)c(F)c1` (centres unmarked) [Example 42, 2-(3-fluoro-4-(methylsulfonamidomethyl)phenyl)-N-((2-(2-methoxy-3-methylphenyl)-6-(trifluoromethyl)pyridin-3-yl)methyl)propanamide], the Ki was 65 nM.
On to `Cc1cccc(-c2nc(C(F)(F)F)ccc2CNC(=O)C(C)c2ccc(CNS(C)(=O)=O)cc2)c1` (centres unmarked) [Example 4, 2-(4-(methylsulfonamidomethyl)phenyl)-N-((2-m-tolyl-6-(trifluoromethyl)pyridin-3-yl)methyl)propanamide], for which the Ki amounted to 66 nM.
With `Cc1ccc(-c2nc(C(F)(F)F)ccc2CNC(=O)C(C)c2ccc(CNS(C)(=O)=O)c(F)c2)cc1` (centres unmarked) [Example 29, 2-(3-fluoro-4-(methylsulfonamidomethyl)phenyl)-N-((2-p-tolyl-6-(trifluoromethyl)pyridin-3-yl)methyl)propanamide], the Ki was found to be 32 nM.
As for `CC(C(=O)NCc1ccc(C(F)(F)F)nc1-c1cc(F)ccc1F)c1ccc(CNS(C)(=O)=O)c(F)c1` (centres unmarked) [Example 12, N-((2-(2,5-difluorophenyl)-6-(trifluoromethyl)pyridin-3-yl)methyl)-2-(3-fluoro-4-(methylsulfonamidomethyl)phenyl)propanamide], the Ki was found to be 42 nM.
Still for that read-out and setting: to `COc1ccc(-c2nc(C(F)(F)F)ccc2CNC(=O)C(C)c2ccc(CNS(C)(=O)=O)c(F)c2)cn1` (centres unmarked) [Example 68, 2-(3-fluoro-4-(methylsulfonamidomethyl)phenyl)-N-((6′-methoxy-6-(trifluoromethyl)-2,3′-bipyridin-3-yl)methyl)propanamide] belongs 72 nM; to `CC(C(=O)NCc1ccc(C(F)(F)F)nc1-c1ccccc1)c1ccc(CNS(C)(=O)=O)c(F)c1` (centres unmarked) [Example 5, 2-(3-fluoro-4-(methylsulfonamidomethyl)phenyl)-N-((2-phenyl-6-(trifluoromethyl)pyridin-3-yl)methyl)propanamide], 31 nM.
As for `Cc1cccc(-c2nc(C(F)(F)F)ccc2CNC(=O)Nc2ccc(CNS(C)(=O)=O)cc2)c1` [Example 2, N-(4-(3-((2-m-tolyl-6-(trifluoromethyl)pyridin-3-yl)methyl)ureido)benzyl)methanesulfonamide], the Ki was 10 nM.
For the compound `CC(C)c1cccc(-c2nc(C(F)(F)F)ccc2CNC(=O)C(C)c2ccc(CNS(C)(=O)=O)c(F)c2)c1` (centres unmarked) [Example 50, 2-(3-fluoro-4-(methylsulfonamidomethyl)phenyl)-N-((2-(3-isopropylphenyl)-6-(trifluoromethyl)pyridin-3-yl)methyl)propanamide], the Ki amounted to 2 nM.
Regarding `COc1ccccc1-c1nc(C(F)(F)F)ccc1CNC(=O)C(C)c1ccc(CNS(C)(=O)=O)c(F)c1` (centres unmarked) [Example 60, 2-(3-fluoro-4-(methylsulfonamidomethyl)phenyl)-N-((2-(2-methoxyphenyl)-6-(trifluoromethyl)pyridin-3-yl)methyl)propanamide], the Ki came out at 43 nM.
For the compound `CCOc1cccc(-c2nc(C(F)(F)F)ccc2CNC(=O)C(C)c2ccc(CNS(C)(=O)=O)c(F)c2)c1` (centres unmarked) [Example 64, N-((2-(3-ethoxyphenyl)-6-(trifluoromethyl)pyridin-3-yl)methyl)-2-(3-fluoro-4-(methylsulfonamidomethyl)phenyl)propanamide], the Ki is 28 nM.
`Cc1cccc(-c2nc(C(F)(F)F)ccc2CNC(=O)Nc2ccc(CNS(N)(=O)=O)cc2)c1` [Example 84, 1-{[2-m-tolyll-6-(trifluoromethyl)pyridin-3-yl]methyl}-3-{4-[(sulfamoylamino)methyl]phenyl}urea]: the inhibition constant (Ki) was 9 nM.
As for `C[C@H](C(=O)NCc1ccc(C(F)(F)F)nc1-c1ccc(F)c(Cl)c1)c1ccc(CNS(C)(=O)=O)c(F)c1` [Example 17, (S)—N-((2-(3-chloro-4-fluorophenyl)-6-(trifluoromethyl)pyridin-3-yl)methyl)-2-(3-fluoro-4-(methylsulfonamidomethyl)phenyl)propanamide], the Ki was 4 nM.
For `Cc1cccc(-c2nc(C(F)(F)F)ccc2CNC(=O)Nc2ccc(CNS(N)(=O)=O)c(F)c2)c1` [Example 86, 1-{3-fluoro-4-[(sulfamoylamino)methyl]phenyl}-3-{[2-m-tolyl-6-(trifluoromethyl)pyridin-3-yl]methyl}urea], the inhibitory constant (Ki) was 6 nM.
As to `COc1cc(C)cc(-c2nc(C(F)(F)F)ccc2CNC(=O)C(C)c2ccc(CNS(C)(=O)=O)c(F)c2)c1` (centres unmarked) [Example 44, 2-(3-fluoro-4-(methylsulfonamidomethyl)phenyl)-N-((2-(3-methoxy-5-methylphenyl)-6-(trifluoromethyl)pyridin-3-yl)methyl)propanamide], the Ki was 106 nM.
Same read-out and setting: the result for `CC(C(=O)NCc1ccc(C(F)(F)F)nc1-c1ccc(C#N)cc1)c1ccc(CNS(C)(=O)=O)c(F)c1` (centres unmarked) [Example 58, N-((2-(4-cyanophenyl)-6-(trifluoromethyl)pyridin-3-yl)methyl)-2-(3-fluoro-4-(methylsulfonamidomethyl)phenyl)propanamide] reads 45 nM; that for `COc1ccc(-c2nc(C(F)(F)F)ccc2CNC(=O)C(C)c2ccc(CNS(C)(=O)=O)c(F)c2)cc1C` (centres unmarked) [Example 43, 2-(3-fluoro-4-(methylsulfonamidomethyl)phenyl)-N-((2-(4-methoxy-3-methylphenyl)-6-(trifluoromethyl)pyridin-3-yl)methyl)propanamide], 35 nM; that for `CC(C(=O)NCc1ccc(C(F)(F)F)nc1-c1cccc(F)c1F)c1ccc(CNS(C)(=O)=O)c(F)c1` (centres unmarked) [Example 9, N-((2-(2,3-difluorophenyl)-6-(trifluoromethyl)pyridin-3-yl)methyl)-2-(3-fluoro-4-(methylsulfonamidomethyl)phenyl)propanamide], 47 nM.

Still in this test, the particulars now being: inhibition at 1 μM.
With “N-((2-(2-ethoxy-5-methylphenyl)-6-(trifluoromethyl)pyridin-3-yl)methyl)-2-(3-fluoro-4-(methylsulfonamidomethyl)phenyl)propanamide [Example 48]”, the “(f) inhibition (human being), Cap, @1 μM” value was determined as 15%@1 μM.

The test is the same for the next values; noted with them: inhibition at 1 μM, read-out: (f) inhibition (human being), Cap, @1 μM.
`Cc1ccccc1-c1nc(C(F)(F)F)ccc1CNC(=O)C(C)c1ccc(CNS(C)(=O)=O)c(F)c1` (centres unmarked) [Example 19, 2-(3-fluoro-4-(methylsulfonamidomethyl)phenyl)-N-((2-o-tolyl-6-(trifluoromethyl)pyridin-3-yl)methyl)propanamide]: the inhibition at 1 µM stood at 18%.

Still in this test, the particulars now being: inhibition at 5 μM, read-out: (f) inhibition (human being), Cap, @5 μM.
`CC(C(=O)NCc1ccc(C(F)(F)F)nc1-c1ccccc1F)c1ccc(CNS(C)(=O)=O)c(F)c1` (centres unmarked) [Example 6, 2-(3-fluoro-4-(methylsulfonamidomethyl)phenyl)-N-((2-(2-fluorophenyl)-6-(trifluoromethyl)pyridin-3-yl)methyl)propanamide]: the inhibition at 5 µM came to 37%.
As for `CC(C(=O)NCc1ccc(C(F)(F)F)nc1-c1cccnc1)c1ccc(CNS(C)(=O)=O)c(F)c1` (centres unmarked) [Example 67, 2-(3-fluoro-4-(methylsulfonamidomethyl)phenyl)-N-((6-(trifluoromethyl)-2,3′-bipyridin-3-yl)methyl)propanamide], the inhibition at 5 µM came to 15%.
Consider `C[C@@H](C(=O)NCc1ccc(C(F)(F)F)nc1-c1ccc(F)c(Cl)c1)c1ccc(CNS(C)(=O)=O)c(F)c1` [Example 18, (R)—N-((2-(3-chloro-4-fluorophenyl)-6-(trifluoromethyl)pyridin-3-yl)methyl)-2-(3-fluoro-4-(methylsulfonamidomethyl)phenyl)propanamide], for which the inhibition at 5 µM turned out to be 42%.
The same measure, in the same setting: to `Cc1ncccc1-c1nc(C(F)(F)F)ccc1CNC(=O)C(C)c1ccc(CNS(C)(=O)=O)c(F)c1` (centres unmarked) [Example 71, 2-(3-fluoro-4-(methylsulfonamidomethyl)phenyl)-N-((2′-methyl-6-(trifluoromethyl)-2,3′-bipyridin-3-yl)methyl)propanamide] belongs 19%.
